The nature of data set [1]: Peptide stability in PBS or PBS with 10% FCS, read out as antiviral activity. In kind it is in vitro ADME. Particulars: 48 h at 37 °C versus −20 °C, two independent incubations in duplicate. The procedure:
A baculovirus expressing luciferase under the control of the CMV promoter has been described previously. HEK293 cells were seeded at a density of 2 × 10^4 cells/100 µL per well in 96-well plates (Sarstedt, Germany). On the next day, cells were treated with a 1:3 dilution series of peptides and, without further pre-incubation, subsequently infected with baculovirus–luc at a multiplicity of infection (MOI) of 5. Cells were lysed 24 h post-infection using 20 µL Cell Culture Lysis Reagent (Promega, Mannheim, Germany). From the lysates, 10 µL was transferred to white 96-well plates, and luciferase was recorded using a luciferase assay system and a GloMax®-Multi Detection System (Promega, Mannheim, Germany).
NIH/3T3 cells were seeded at a density of 2 × 10^4 cells/100 µL per well in a 96-well plate (Sarstedt, Germany) and allowed to attach overnight. On the next day, cells were treated with a 1:3 dilutions series of peptides and, without further pre-incubation, subsequently infected with the MCMV strain delm157-luc rep. The MCMV stock was prepared and quantified as previously described. […] From the lysates, 10 µL was transferred to white 96-well plates, and luciferase was recorded using a Luciferase Assay System and a GloMax®-Multi Detection System (Promega, Mannheim, Germany). […]

For data set [2], the system named is human PBMCs. The experiment in a line: LPS-induced cytokine release in PBMCs (ELISA). Particulars: three peptide concentrations, 0.25 µg/mL LPS, 24 h, duplicate, versus control without peptides. In kind it is cell-based. How it is done: Isolation of PBMCs was performed by adding 3 mL blood on a 3 mL layer of Histopaque-1077 (Sigma Aldrich, Schnelldorf, Germany) and centrifuged at 400× g for 30 min at room temperature with the lowest brake and acceleration settings. After centrifugation, plasma was aspirated and the PBMC layer was transferred to a 15 mL conical centrifugation tube. Cells were resuspended in 10 mL PBS, followed by centrifugation at 250× g for 10 min. The cell pellet was resuspended in 5 mL PBS, followed by centrifugation at 250× g for 10 min for a total of three times. Finally, the pellet was resuspended in 1 mL cell culture medium supplemented with 10% FCS. Cells were then seeded in a 48-well plate at 2.5 × 10^5 cells/125 µL per well, treated with 125 µL peptide dilutions in the absence and presence of 0.25 µg/mL lipopolysaccharide (LPS) from Escherichia coli (Sigma-Aldrich, Schnelldorf, Germany) and incubated at 37 °C for 24 h. Supernatants were then collected for subsequent analysis by ELISA.
ELISA was performed using human tumor necrosis factor-α (TNF-α) and interleukin-6 (IL-6) ELISA MAX^TM De Luxe Sets from Biolegend (San Diego, CA, USA) according to the manufacturer’s instructions. Supernatants were diluted 1:5 for TNF-α and 1:500 for IL-6.

For data set [3], the target named is dsDNA (pcDNA3.1 (+) plasmid). Nature of the data set: DNA binding assay (SYBR Gold fluorescence reduction). The settings on record: reduction of fluorescence of SYBR Gold bound to pcDNA3.1 (+) plasmid (100 ng); non-linear regression; n = 8. The procedure: DNA-binding of the peptides was analyzed using an assay based on the reduction of the fluorescence of DNA-bound SYBR^TM Gold dye in the presence of peptide. […] The selectivity index (SI), that is, the ratio between CC50 and IC50, was calculated for all peptides tested in HEK293 cells, except for C22del and C22del_cyc, for which the CC50 could not be calculated from the results of the cell viability assay (Table 1, Supplementary Figure S1).
DNA binding was detected using an assay based on reduction of fluorescence emitted by SYBR^TM Gold (ThermoFisher, Darmstadt, Germany) bound to dsDNA in the presence of peptides using the pcDNA3.1 (+) plasmid (100 ng), as described previously.

The test system of data set [4] is human red blood cells (RBCs). Nature of the data set: Hemolysis assay with red blood cells. In kind it is cell-based. Particulars: 1 h at 37 °C. The procedure: Blood from healthy volunteers was collected by venipuncture (Greiner Bio-One, Kremsmünster, Austria) into K2E K2EDTA VacuetteTM tubes (Greiner Bio-One, Kremsmünster, Austria) with 4 mL blood. The assay for hemolysis was adapted from Sæbo et al.. Blood was centrifuged at 1000× g for 10 min, and plasma was kept for further use. Red blood cells were then resuspended in 10 mL PBS and centrifuged again at 1000× g for a total of three times. Cells were then counted using a hemocytometer and seeded at a cell number of 1 × 10^7 cells/100 µL PBS per well in conical 96-well plates (ThermoFisher, Darmstadt, Germany). Next, 1:2 peptide dilutions starting from 40 µM either in PBS or 10% donor serum were prepared, and 100 µL was added to 100 µL of RBC. Plates were then incubated for one hour at 37 °C. As the positive control, three wells with 100 µL RBCs were treated with 100 µL PBS + 0.5% Triton X-100. After incubation, plates were centrifuged at 1000× g for 5 min and supernatants were transferred to flat 96-well plates. Optical density (OD) was determined at 450 nm using a GloMax®-Multi Detection System (Promega, Mannheim, Germany). Images from RBCs from light microscopy and centrifuged plates were taken using an iPhone 12 mini.

Where a SMILES comes first, the peptide text is derived from it.

As to `CC(C)C[C@H](NC(=O)[C@H](CS)NC(=O)[C@H](CCC(N)=O)NC(=O)[C@@H]1CCCN1C(=O)[C@@H]1CCCN1C(=O)[C@H](CCCNC(=N)N)NC(=O)[C@H](CCCNC(=N)N)NC(=O)[C@H](CCCNC(=N)N)NC(=O)[C@H](CCC(N)=O)NC(=O)[C@H](CCCNC(=N)N)NC(=O)[C@H](CCCNC(=N)N)NC(=O)[C@H](CCCCN)NC(=O)[C@H](CCCCN)NC(=O)[C@H](CCCNC(=N)N)NC(=O)CN)C(=O)N[C@@H](C)C(=O)N[C@@H](Cc1ccccc1)C(=O)N[C@@H](Cc1ccc(O)cc1)C(=O)N[C@@H](C)C(=O)N[C@@H](CS)C(=O)N[C@@H](Cc1ccccc1)C(=O)N[C@@H](CS)C(=O)O` [TAT-I24] (H-GRKKRRQRRRPPQCLAFYACFC-OH), in data set [1] (20 µg peptide in 50 µL PBS with 10% FCS, read-out baculovirus/HEK293 (24 h) and MCMV/NIH/3T3 (72 h) luciferase), the “antiviral activity after incubation of peptide with serum (serum stability)” value was “slight reduction in antiviral activity”. In addition, the “antiviral activity after incubation of peptide without serum” value in data set [1] (20 µg peptide in 50 µL PBS, read-out baculovirus/HEK293 and MCMV/NIH/3T3 luciferase) was “curve shaping for both peptides was altered”. In data set [2], the “LPS-induced IL-6 release” value is “No significant differences” and the “LPS-induced TNF-α release” value is “No significant differences”. Moreover, in data set [3], the IC50 amounted to 1.01 µM. Further, the “hemolysis of human RBCs” value in data set [4] (peptide dilutions in PBS or PBS + 10% donor serum, concentrations < 20 µM (1:2 dilutions), OD 450 nm of supernatants, n = 6) is reported as “neither induce hemolysis”. Further, in data set [4] (peptide dilutions prepared in PBS, up to 20 µM), the “swelling of RBCs (pellet size after centrifugation)” value is reported as “Swelling of red blood cells”.

The record behind these values is publication PMC11477294, “In Vitro Profiling of the Antiviral Peptide TAT-I24” (International Journal of Molecular Sciences, 2024).
